Experimental data: PubChem BioAssay AID192 (DTP/NCI, 2004)
Values joined by “and” are separate entries in the source; they are usually repeats but may differ in a detail not shown here. Equal entries are not always repeated. Inconclusive results and toxic doses are left out.

Test system: BDF1 mice, B16 melanoma ip, median survival T/C
Assay: NCI In Vivo Anticancer Drug Screen. Data for tumor model B16 Melanoma (intraperitoneal) in B6D2F1 (BDF1) mice
Conditions: endpoint: median survival time, higher = longer survival
Method in brief: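 Mice with transplantable tumors; drug vs vehicle groups; endpoint survival or tumor size; value = T/C.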

[1] = dose: 25.0 mg/kg/injection, schedule: Q01DX009 (ip), vehicle: saline with Tween-80
[2] = dose: 50.0 mg/kg/injection, schedule: Q01DX009 (ip), vehicle: saline with Tween-80
[3] = dose: 25.0 mg/kg/injection, schedule: Q01DX009 (ip), vehicle: Klucel (hydroxypropylcellulose) (HPC)
[4] = dose: 50.0 mg/kg/injection, schedule: Q01DX009 (ip), vehicle: Klucel (hydroxypropylcellulose) (HPC)
[5] = dose: 1.0 mg/kg/injection, schedule: Q01DX009 (ip), vehicle: saline with Tween-80
[6] = dose: 12.5 mg/kg/injection, schedule: Q01DX009 (ip), vehicle: saline
[7] = dose: 25.0 mg/kg/injection, schedule: Q01DX009 (ip), vehicle: saline
[8] = dose: 50.0 mg/kg/injection, schedule: Q01DX009 (ip), vehicle: saline
[9] = dose: 100.0 mg/kg/injection, schedule: Q01DX009 (ip), vehicle: saline
[10] = dose: 100.0 mg/kg/injection, schedule: Q01DX009 (ip), vehicle: saline with Tween-80
[11] = dose: 200.0 mg/kg/injection, schedule: Q01DX009 (ip), vehicle: saline with Tween-80
[12] = dose: 400.0 mg/kg/injection, schedule: Q01DX009 (ip), vehicle: saline with Tween-80

C/C(=C\c1ccccc1)[N+](=O)[O-]
T/C [1]: 111 % of control
T/C (dose: 25.0 mg/kg/injection, schedule: Q04DX003 (ip), vehicle: saline with Tween-80): 110 % of control
T/C [2]: 105 % of control
T/C (dose: 50.0 mg/kg/injection, schedule: Q04DX003 (ip), vehicle: saline with Tween-80): 110 % of control

O=C1c2ccccc2C(=O)c2c(NCCNCCNCCO)ccc(NCCNCCNCCO)c21
T/C (dose: 8.0 mg/kg/injection, schedule: Q01DX009 (ip), vehicle: acid diluted with saline): 97 % of control
T/C (dose: 16.0 mg/kg/injection, schedule: Q01DX009 (ip), vehicle: acid diluted with saline): 101 % of control
T/C (dose: 32.0 mg/kg/injection, schedule: Q01DX009 (ip), vehicle: acid diluted with saline): 103 % of control
T/C (dose: 64.0 mg/kg/injection, schedule: Q01DX009 (ip), vehicle: acid diluted with saline): 100 % of control
T/C (dose: 128.0 mg/kg/injection, schedule: Q01DX009 (ip), vehicle: acid diluted with saline): 98 % of control

ClCCCCCCCCCCc1ccccc1
T/C (dose: 12.5 mg/kg/injection, schedule: Q01DX009 (ip), vehicle: Klucel (hydroxypropylcellulose) (HPC)): 90 % of control
T/C [3]: 90 % of control
T/C [4]: 89 % of control

CCCCCCCC(=O)OCC(=O)[C@]1(O)Cc2c(O)c3c(c(O)c2[C@@H](OC2CC(N)C(O)C(C)O2)C1)C(=O)c1c(OC)cccc1C3=O (stereo not given in full)
T/C (dose: 0.25 mg/kg/injection, schedule: Q01DX009 (ip), vehicle: saline with Tween-80): 176 % of control
T/C (dose: 0.5 mg/kg/injection, schedule: Q01DX009 (ip), vehicle: saline with Tween-80): 222 % of control
T/C [5]: 151 % of control and 212 % of control
T/C (dose: 1.25 mg/kg/injection, schedule: Q01DX001 (ip), vehicle: water): 170 % of control
T/C (dose: 2.0 mg/kg/injection, schedule: Q01DX009 (ip), vehicle: saline with Tween-80): 150 % of control and 274 % of control
T/C (dose: 2.5 mg/kg/injection, schedule: Q01DX001 (ip), vehicle: water): 117 % of control (2×) and 214 % of control
T/C (dose: 5.0 mg/kg/injection, schedule: Q01DX001 (ip), vehicle: water): 97 % of control and 252 % of control
T/C (dose: 10.0 mg/kg/injection, schedule: Q01DX001 (ip), vehicle: water): 227 % of control
T/C (dose: 20.0 mg/kg/injection, schedule: Q01DX001 (ip), vehicle: water): 122 % of control
T/C (dose: 1440.0 micrograms/kg/injection, schedule: Q01DX004 (ip), vehicle: other): 115 % of control
T/C (dose: 2400.0 micrograms/kg/injection, schedule: Q01DX004 (ip), vehicle: other): 110 % of control
T/C (dose: 4000.0 micrograms/kg/injection, schedule: Q01DX004 (ip), vehicle: other): 122 % of control

OCC(O)COCC#Cc1ccccc1 (stereo not given)
T/C (dose: 6.25 mg/kg/injection, schedule: Q01DX009 (ip), vehicle: saline): 118 % of control
T/C [6]: 114 % of control
T/C [7]: 110 % of control
T/C [4]: 87 % of control
T/C [8]: 101 % of control

CN1C(=O)OC(C)(C)C1=O
T/C (dose: 0.78 mg/kg/injection, schedule: Q04DX003 (ip), vehicle: saline): 95 % of control
T/C (dose: 1.56 mg/kg/injection, schedule: Q04DX003 (ip), vehicle: saline): 100 % of control
T/C (dose: 3.12 mg/kg/injection, schedule: Q04DX003 (ip), vehicle: saline): 105 % of control
T/C (dose: 6.25 mg/kg/injection, schedule: Q04DX003 (ip), vehicle: saline): 105 % of control
T/C (dose: 12.5 mg/kg/injection, schedule: Q04DX003 (ip), vehicle: saline): 100 % of control
T/C [7]: 110 % of control
T/C [8]: 100 % of control
T/C [9]: 100 % of control
T/C (dose: 200.0 mg/kg/injection, schedule: Q01DX009 (ip), vehicle: saline): 97 % of control
T/C (dose: 400.0 mg/kg/injection, schedule: Q01DX009 (ip), vehicle: saline): 94 % of control

Cc1ncc([N+](=O)[O-])n1CCSC(N)=O
T/C (dose: 12.5 mg/kg/injection, schedule: Q01DX009 (ip), vehicle: saline with Tween-80): 97 % of control and 99 % of control
T/C [1]: 95 % of control and 102 % of control
T/C [2]: 101 % of control
T/C [10]: 97 % of control and 101 % of control
T/C [11]: 91 % of control and 96 % of control
T/C [12]: 92 % of control

COC(=O)N1CC=CCN1C(=O)OC
T/C (dose: 100.0 mg/kg/injection, schedule: Q04DX003 (ip), vehicle: saline with Tween-80): 102 % of control
T/C (dose: 200.0 mg/kg/injection, schedule: Q04DX003 (ip), vehicle: saline with Tween-80): 102 % of control
T/C (dose: 400.0 mg/kg/injection, schedule: Q04DX003 (ip), vehicle: saline with Tween-80): 94 % of control

CCOc1ncc([N+](=O)[O-])c(OCC)n1
T/C [2]: 104 % of control
T/C [10]: 100 % of control
T/C [12]: 95 % of control

Cc1ccc(Cl)cc1NC(=O)Nc1ccccc1Cl
T/C (dose: 0.78 mg/kg/injection, schedule: Q01DX009 (ip), vehicle: saline with Tween-80): 88 % of control
T/C (dose: 1.56 mg/kg/injection, schedule: Q01DX009 (ip), vehicle: saline with Tween-80): 90 % of control
T/C (dose: 3.13 mg/kg/injection, schedule: Q01DX009 (ip), vehicle: saline with Tween-80): 93 % of control
T/C (dose: 6.25 mg/kg/injection, schedule: Q01DX009 (ip), vehicle: saline with Tween-80): 90 % of control
T/C [3]: 89 % of control

OCCNCCNc1ccnc2cc(Cl)ccc12
T/C [6]: 89 % of control
T/C [7]: 104 % of control
T/C [8]: 99 % of control
T/C [9]: 110 % of control

CN(C(N)=O)C1CCCC1
T/C [10]: 114 % of control
T/C [11]: 100 % of control
T/C [12]: 93 % of control

CC(=O)Nc1ccc(OC(=O)Nc2cccc3ccccc23)cc1
T/C (dose: 50.0 mg/kg/injection, schedule: Q04DX003 (ip), vehicle: Klucel (hydroxypropylcellulose) (HPC)): 96 % of control
T/C (dose: 100.0 mg/kg/injection, schedule: Q04DX003 (ip), vehicle: Klucel (hydroxypropylcellulose) (HPC)): 106 % of control
T/C (dose: 200.0 mg/kg/injection, schedule: Q04DX003 (ip), vehicle: Klucel (hydroxypropylcellulose) (HPC)): 93 % of control

CCCNCCN
T/C [7]: 109 % of control
T/C [8]: 116 % of control
T/C [9]: 96 % of control

COc1cc2cc3c4ccccc4cc[n+]3c(C)c2cc1OC (tested in a mixture with another compound)
T/C (dose: 5.0 mg/kg/injection, schedule: Q01DX009 (ip), vehicle: Klucel (hydroxypropylcellulose) (HPC)): 99 % of control
T/C (dose: 10.0 mg/kg/injection, schedule: Q01DX009 (ip), vehicle: Klucel (hydroxypropylcellulose) (HPC)): 99 % of control
T/C (dose: 20.0 mg/kg/injection, schedule: Q01DX009 (ip), vehicle: Klucel (hydroxypropylcellulose) (HPC)): 95 % of control

CCCC(C)c1ccccc1O (stereo not given)
T/C [1]: 108 % of control
T/C [2]: 108 % of control
T/C [10]: 92 % of control

CCOc1ccc2cc(S(=O)(=O)O)ccc2c1N
T/C [10]: 95 % of control
T/C [11]: 87 % of control
T/C [12]: 95 % of control

O=C1c2c(O)ccc(O)c2C(=O)c2c(NCCNCCO)ccc(NCCNCCO)c21
T/C (dose: 0.13 mg/kg/injection, schedule: Q01DX009 (ip), vehicle: saline with Tween-80): 110 % of control
T/C (dose: 0.25 mg/kg/injection, schedule: Q01DX009 (ip), vehicle: saline): 186 % of control and 188 % of control
T/C (dose: 0.25 mg/kg/injection, schedule: Q01DX009 (ip), vehicle: water): 157 % of control and 160 % of control and 174 % of control
T/C (dose: 0.25 mg/kg/injection, schedule: Q01DX009 (oral), vehicle: acid diluted with saline): 98 % of control
T/C (dose: 0.5 mg/kg/injection, schedule: Q01DX009 (ip), vehicle: saline): 218 % of control
T/C (dose: 0.5 mg/kg/injection, schedule: Q01DX009 (ip), vehicle: water): 218 % of control and 225 % of control and 247 % of control
T/C (dose: 0.5 mg/kg/injection, schedule: Q01DX009 (oral), vehicle: acid diluted with saline): 104 % of control
T/C [5]: 152 % of control and 156 % of control
T/C (dose: 1.0 mg/kg/injection, schedule: Q01DX009 (ip), vehicle: saline): 260 % of control and 267 % of control
T/C (dose: 1.0 mg/kg/injection, schedule: Q01DX009 (ip), vehicle: water): 121 % of control and 202 % of control and 261 % of control
T/C (dose: 1.25 mg/kg/injection, schedule: Q01DX001 (ip), vehicle: acid diluted with saline): 153 % of control
T/C (dose: 2.0 mg/kg/injection, schedule: Q01DX001 (ip), vehicle: water): 212 % of control
T/C (dose: 2.0 mg/kg/injection, schedule: Q01DX009 (ip), vehicle: saline): 207 % of control and 251 % of control
T/C (dose: 2.0 mg/kg/injection, schedule: Q01DX009 (ip), vehicle: water): 221 % of control
T/C (dose: 2.5 mg/kg/injection, schedule: Q01DX001 (ip), vehicle: acid diluted with saline): 123 % of control and 205 % of control
T/C (dose: 4.0 mg/kg/injection, schedule: Q01DX001 (ip), vehicle: water): 202 % of control
T/C (dose: 8.0 mg/kg/injection, schedule: Q01DX001 (ip), vehicle: water): 303 % of control
